In ChEMBL document CHEMBL5126513 (Eur J Med Chem, 2022):

Legend:
[1] = molecular target: T1, Protein cereblon/Tyrosine-protein kinase BTK (Homo sapiens, UniProt Q06187+Q96SW2); assay: Protac activity at CRBN/BTK in human MINO cells assessed as BTK degradation; assay type: cell-based
[2] = molecular target: T1, Protein cereblon/Tyrosine-protein kinase BTK; assay: Protac activity at CRBN (unknown origin)/BTK (unknown origin) assessed as BTK degradation; assay type: protein assay
[3] = molecular target: T2, Tyrosine-protein kinase BTK (Homo sapiens, UniProt Q06187); assay: Inhibition of full-length wild-type BTK (unknown origin) measured by HTRF assay
[4] = molecular target: T2, Tyrosine-protein kinase BTK; assay: Inhibition of BTK (unknown origin)
[5] = molecular target: Tyrosine-protein kinase Blk (Homo sapiens, UniProt P51451); assay: Inhibition of BLK (unknown origin)
[6] = molecular target: T3, Tyrosine-protein kinase TXK (Homo sapiens, UniProt P42681); assay: Inhibition of TXK (unknown origin)
T3 sequence (P42681 whole entry): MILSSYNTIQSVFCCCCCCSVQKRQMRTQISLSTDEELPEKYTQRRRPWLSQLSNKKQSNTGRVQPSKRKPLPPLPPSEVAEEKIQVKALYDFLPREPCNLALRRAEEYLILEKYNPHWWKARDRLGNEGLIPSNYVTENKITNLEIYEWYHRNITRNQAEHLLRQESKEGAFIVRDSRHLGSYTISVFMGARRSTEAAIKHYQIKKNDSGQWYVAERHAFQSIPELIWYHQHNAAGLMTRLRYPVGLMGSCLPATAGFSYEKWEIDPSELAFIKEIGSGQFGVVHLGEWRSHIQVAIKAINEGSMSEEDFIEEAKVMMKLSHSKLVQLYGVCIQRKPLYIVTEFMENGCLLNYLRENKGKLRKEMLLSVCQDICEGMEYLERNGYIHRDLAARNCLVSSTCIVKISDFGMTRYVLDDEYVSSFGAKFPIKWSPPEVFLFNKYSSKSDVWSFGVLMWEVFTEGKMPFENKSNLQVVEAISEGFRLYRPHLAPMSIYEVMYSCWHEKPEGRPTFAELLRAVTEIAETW

T1 sequence (Q06187 whole entry): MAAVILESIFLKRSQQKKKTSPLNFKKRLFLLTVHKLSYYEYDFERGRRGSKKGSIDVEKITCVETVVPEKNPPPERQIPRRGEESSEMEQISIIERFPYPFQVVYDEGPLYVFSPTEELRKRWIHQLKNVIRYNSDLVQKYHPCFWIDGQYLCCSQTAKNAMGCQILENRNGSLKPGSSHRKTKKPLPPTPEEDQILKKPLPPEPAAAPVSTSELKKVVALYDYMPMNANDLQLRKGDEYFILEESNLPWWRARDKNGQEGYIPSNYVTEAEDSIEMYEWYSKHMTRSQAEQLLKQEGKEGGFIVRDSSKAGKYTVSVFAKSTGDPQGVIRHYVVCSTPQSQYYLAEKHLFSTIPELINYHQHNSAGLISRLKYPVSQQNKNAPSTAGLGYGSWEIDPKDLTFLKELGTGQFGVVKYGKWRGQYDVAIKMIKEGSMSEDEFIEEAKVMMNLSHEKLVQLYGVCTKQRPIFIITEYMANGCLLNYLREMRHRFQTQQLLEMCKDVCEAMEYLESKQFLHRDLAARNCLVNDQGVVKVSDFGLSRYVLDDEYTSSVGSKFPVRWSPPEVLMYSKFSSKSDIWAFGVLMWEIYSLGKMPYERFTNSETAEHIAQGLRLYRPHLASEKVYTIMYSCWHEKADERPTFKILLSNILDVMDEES
T1 sequence (Q96SW2 whole entry): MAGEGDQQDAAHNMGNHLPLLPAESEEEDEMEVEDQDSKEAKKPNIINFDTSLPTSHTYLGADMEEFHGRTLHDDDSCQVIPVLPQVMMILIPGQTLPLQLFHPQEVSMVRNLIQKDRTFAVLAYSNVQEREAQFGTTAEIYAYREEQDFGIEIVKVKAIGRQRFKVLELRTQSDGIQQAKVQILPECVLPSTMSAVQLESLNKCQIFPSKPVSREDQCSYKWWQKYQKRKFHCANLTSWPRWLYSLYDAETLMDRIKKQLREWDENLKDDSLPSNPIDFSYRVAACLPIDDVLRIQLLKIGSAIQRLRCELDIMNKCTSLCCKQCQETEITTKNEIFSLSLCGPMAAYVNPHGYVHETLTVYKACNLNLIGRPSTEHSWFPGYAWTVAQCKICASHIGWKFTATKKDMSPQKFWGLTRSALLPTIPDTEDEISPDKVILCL
T2 sequence (Q06187 whole entry): as the sequence (Q06187 whole entry) above
Sequence of Tyrosine-protein kinase Blk (P51451 whole entry): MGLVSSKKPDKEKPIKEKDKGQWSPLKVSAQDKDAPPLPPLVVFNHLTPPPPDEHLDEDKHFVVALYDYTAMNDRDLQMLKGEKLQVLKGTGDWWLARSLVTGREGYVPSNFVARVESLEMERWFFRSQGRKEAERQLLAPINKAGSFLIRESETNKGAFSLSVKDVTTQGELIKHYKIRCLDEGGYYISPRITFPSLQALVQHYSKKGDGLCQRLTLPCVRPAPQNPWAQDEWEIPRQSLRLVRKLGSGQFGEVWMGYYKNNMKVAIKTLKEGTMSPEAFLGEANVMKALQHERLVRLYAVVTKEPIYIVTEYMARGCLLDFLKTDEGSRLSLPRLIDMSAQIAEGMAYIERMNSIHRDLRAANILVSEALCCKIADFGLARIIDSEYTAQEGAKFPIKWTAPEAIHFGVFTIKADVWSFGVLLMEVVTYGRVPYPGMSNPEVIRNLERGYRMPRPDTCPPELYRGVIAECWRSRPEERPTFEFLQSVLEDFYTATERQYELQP

Question: With `Nc1ncnc2c1c(-c1ccc(Oc3ccccc3)cc1)nn2[C@@H]1CCCN(C(=O)c2cn(CCOCCOCCOCCCc3ccc4c(c3)CN(C3CCC(=O)NC3=O)C4=O)nn2)C1` (stereo partly specified) as the compound, how does the DC50 [1] read?
Answer: 9.2 nM

Question: With `O=C1CCC(N2C(=O)c3ccc(NCCOCCOCCOCCOCCOCCNC(=O)N[C@H]4CC[C@@H](Nc5ncnc6[nH]cc(C(=O)c7ccc(Oc8ccccc8)cc7Cl)c56)CC4)cc3C2=O)C(=O)N1` (stereo partly specified) as the compound, how does the DC50 [2] read?
Answer: 41.9 nM

Question: With `Cc1cc(Nc2ncc3c(n2)N(C)CN(c2cc(NC(=O)c4cccc(C(F)(F)F)c4)ccc2C)C3)n(C)n1` as the compound, how does the IC50 [3] read?
Answer: 10.7 nM

Question: `COc1ccc(F)cc1C(=O)NCc1ccc(-c2nn([C@@H](C)C(F)(F)F)c(N)c2C(N)=O)cc1` [PIRTOBRUTINIB] was tested. Which IC50 [4] did it give?
Answer: < 1 nM

Question: How did the IC50 [5] turn out when `CC#CC(=O)N1CC[C@@H](n2c(=O)n(-c3ccc(Oc4ccccc4)cc3)c3c(N)ncnc32)C1` [TIRABRUTINIB] was run?
Answer: 1130 nM

Question: And the IC50 [6]?
Answer: 116 nM
